The term IC50 denotes the concentration needed to halve the response being measured.

Experiment [1] addresses Epidermal growth factor receptor (Homo sapiens, UniProt P00533, C797S/L858R/T790M). As to the kind of experiment: Inhibition of human EGFR L858R/T790M/C797S mutant using poly[Glu:Tyr] (4:1) as substrate measured in presence of [gamma-33P]ATP by radiometric assay.
In experiment [2] the target is Epidermal growth factor receptor (Homo sapiens, UniProt P00533, L858R/T790M). As to the kind of experiment: Inhibition of human EGFR L858R/T790M mutant using poly[Glu:Tyr] (4:1) as substrate measured in presence of [gamma-33P]ATP by radiometric assay.

SMILES strings stand for the structures.

Chain of Epidermal growth factor receptor (Homo sapiens, UniProt P00533, L858R/T790M) (P00533 25-1210 T790M/L858R limits assumed): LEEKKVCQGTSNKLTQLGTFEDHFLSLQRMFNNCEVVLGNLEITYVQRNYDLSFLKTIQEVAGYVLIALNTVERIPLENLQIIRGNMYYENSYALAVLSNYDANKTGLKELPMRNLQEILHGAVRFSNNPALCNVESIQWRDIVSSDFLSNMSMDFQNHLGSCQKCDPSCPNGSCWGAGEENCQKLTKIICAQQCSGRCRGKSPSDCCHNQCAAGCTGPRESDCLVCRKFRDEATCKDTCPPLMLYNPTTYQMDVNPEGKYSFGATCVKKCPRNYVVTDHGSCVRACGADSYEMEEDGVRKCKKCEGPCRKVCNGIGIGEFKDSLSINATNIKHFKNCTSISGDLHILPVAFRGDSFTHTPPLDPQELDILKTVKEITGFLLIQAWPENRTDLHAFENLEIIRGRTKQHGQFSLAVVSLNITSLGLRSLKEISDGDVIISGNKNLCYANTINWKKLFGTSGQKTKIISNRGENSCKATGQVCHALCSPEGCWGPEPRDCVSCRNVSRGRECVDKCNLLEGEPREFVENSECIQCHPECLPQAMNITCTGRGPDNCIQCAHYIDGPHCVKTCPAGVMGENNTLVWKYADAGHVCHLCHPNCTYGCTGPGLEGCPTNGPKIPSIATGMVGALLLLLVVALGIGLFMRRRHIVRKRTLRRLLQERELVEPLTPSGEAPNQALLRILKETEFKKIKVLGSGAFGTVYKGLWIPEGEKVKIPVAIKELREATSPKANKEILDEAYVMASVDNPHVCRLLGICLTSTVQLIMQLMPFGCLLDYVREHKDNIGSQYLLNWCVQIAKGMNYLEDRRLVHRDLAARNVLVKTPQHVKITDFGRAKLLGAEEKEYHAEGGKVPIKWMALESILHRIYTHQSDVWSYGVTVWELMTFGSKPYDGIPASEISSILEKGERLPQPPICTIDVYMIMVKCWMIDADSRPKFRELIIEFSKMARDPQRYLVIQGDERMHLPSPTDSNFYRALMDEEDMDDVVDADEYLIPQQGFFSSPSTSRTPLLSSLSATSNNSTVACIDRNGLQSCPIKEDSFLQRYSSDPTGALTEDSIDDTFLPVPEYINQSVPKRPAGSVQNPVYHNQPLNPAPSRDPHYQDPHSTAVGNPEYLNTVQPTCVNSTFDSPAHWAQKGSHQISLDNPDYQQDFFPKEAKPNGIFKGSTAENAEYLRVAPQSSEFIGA
Chain of Epidermal growth factor receptor (Homo sapiens, UniProt P00533, C797S/L858R/T790M) (P00533 25-1210 T790M/C797S/L858R limits assumed): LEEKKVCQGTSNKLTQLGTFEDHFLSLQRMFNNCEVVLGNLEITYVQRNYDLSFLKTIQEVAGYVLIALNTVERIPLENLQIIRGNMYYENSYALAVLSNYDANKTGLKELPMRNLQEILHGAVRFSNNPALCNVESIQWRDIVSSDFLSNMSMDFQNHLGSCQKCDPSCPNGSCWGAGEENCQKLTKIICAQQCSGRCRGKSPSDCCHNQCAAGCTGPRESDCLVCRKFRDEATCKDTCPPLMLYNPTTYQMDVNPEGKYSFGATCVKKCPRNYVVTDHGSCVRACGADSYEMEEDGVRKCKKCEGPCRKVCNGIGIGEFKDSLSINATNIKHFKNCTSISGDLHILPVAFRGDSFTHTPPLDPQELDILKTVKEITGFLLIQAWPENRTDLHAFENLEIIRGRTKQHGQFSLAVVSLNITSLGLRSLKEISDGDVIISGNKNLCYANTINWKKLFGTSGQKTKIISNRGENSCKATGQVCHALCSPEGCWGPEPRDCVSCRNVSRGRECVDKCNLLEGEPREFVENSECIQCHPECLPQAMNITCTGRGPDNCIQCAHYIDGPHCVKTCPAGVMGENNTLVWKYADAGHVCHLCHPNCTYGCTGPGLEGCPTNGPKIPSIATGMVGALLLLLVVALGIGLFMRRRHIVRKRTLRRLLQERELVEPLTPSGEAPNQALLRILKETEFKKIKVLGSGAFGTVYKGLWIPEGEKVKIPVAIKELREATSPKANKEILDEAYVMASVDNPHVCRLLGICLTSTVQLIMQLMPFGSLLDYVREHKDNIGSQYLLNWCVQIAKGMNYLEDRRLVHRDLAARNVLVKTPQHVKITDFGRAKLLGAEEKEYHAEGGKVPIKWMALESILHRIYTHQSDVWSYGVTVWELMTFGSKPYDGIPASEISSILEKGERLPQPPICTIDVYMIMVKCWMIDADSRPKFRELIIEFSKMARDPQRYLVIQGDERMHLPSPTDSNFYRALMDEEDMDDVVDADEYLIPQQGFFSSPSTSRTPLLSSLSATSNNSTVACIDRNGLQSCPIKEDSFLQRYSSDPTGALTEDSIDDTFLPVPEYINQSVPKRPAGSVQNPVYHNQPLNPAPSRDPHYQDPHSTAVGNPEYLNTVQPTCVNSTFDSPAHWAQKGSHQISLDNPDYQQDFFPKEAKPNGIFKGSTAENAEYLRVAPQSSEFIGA

Consider `C=CC(=O)Nc1ccc(OC)c(Nc2cc(-c3c(-c4ccc(F)cc4)nc(SC)n3C)ccn2)c1`, for which the IC50 in experiment [1] was over 5 µM; in experiment [2], 111 nM.
In the case of `C=CC(=O)Nc1ccc(OC)c(Nc2cc(-c3nc(SC)n(C)c3-c3ccc(F)cc3)ccn2)c1`, the results for the IC50 in experiment [1] and in experiment [2] were over 5 µM and 1 nM, respectively.

These data come from ChEMBL document CHEMBL4354875, “Structural Basis for EGFR Mutant Inhibition by Trisubstituted Imidazole Inhibitors” (J Med Chem, 2020).
